From US7683064B2, “Inhibitors of Bruton's tyrosine kinase” (Roche Palo Alto LLC, priority 2008, dated 2010)

Target: T1, Btk enzyme (His-tagged, full-length) (Homo sapiens, UniProt Q06187)
T1 construct: 5-10 nM Btk enzyme (His-tagged, full-length); His tag
Experiment: Bruton's Tyrosine Kinase (Btk) inhibition assay, 33P filtration capture
Type: biochemical
Details: 100 μM ATP, 30 μM biotinylated SH2 peptide substrate, 5-10 nM Btk, 30 min at 30° C.
Description: The assay is a capture of radioactive ^33P phosphorylated product through filtration. The interactions of Btk, biotinylated SH2 peptide substrate (Src homology), and ATP lead to phosphorylation of the peptide substrate. Biotinylated product is bound streptavidin sepharose beads. All bound, radiolabeled products are detected by scintillation counter.
Plates assayed are 96-well polypropylene (Greiner) and 96-well 1.2 μm hydrophilic PVDF filter plates (Millipore). Concentrations reported here are final assay concentrations: 10-100 μM compounds in DMSO (Burdick and Jackson), 5-10 nM Btk enzyme (His-tagged, full-length), 30 μM peptide substrate (Biotin-Aca-[…]-NH2), 100 μM ATP (Sigma), 8 mM imidazole (Sigma, pH 7.2), 8 mM glycerol-2-phosphate (Sigma), 200 μM EGTA (Roche Diagnostics), 1 mM MnCl2 (Sigma), 20 mM MgCl2 (Sigma), 0.1 mg/ml BSA (Sigma), 2 mM DTT (Sigma), 1 μCi ^33P ATP (Amersham), 20% streptavidin sepharose beads (Amersham), 50 mM EDTA (Gibco), 2 M NaCl (Gibco), 2 M NaCl w/1% phosphoric acid (Gibco), microscint-20 (Perkin Elmer).
IC50 determinations are calculated from 10 data points per compound utilizing data produced from a standard 96-well plate assay template. One control compound and seven unknown inhibitors were tested on each plate and each plate was run twice. Typically, compounds were diluted in half-log starting at 100 μM and ending at 3 nM. The control compound was staurosporine. Background was counted in the absence of peptide substrate. Total activity was determined in the presence of peptide substrate. The following protocol was used to determine Btk inhibition.
1) Sample preparation: The test compounds were diluted at half-log increments in assay buffer (imidazole, glycerol-2-phosphate, EGTA, MnCl2, MgCl2, BSA).
• a.) rinse beads by centrifuging at 500 g • b.) reconstitute the beads with PBS and EDTA to produce a 20% bead slurry 3) Pre-incubate reaction mix without substrate (assay buffer, DTT, ATP, ^33P ATP) and mix with substrate (assay buffer, DTT, ATP, ^33P ATP, peptide substrate) 30° C. for 15 min. 4) To start assay, pre-incubate 10 μL Btk in enzyme buffer (imidazole, glycerol-2-phos-phate, BSA) and 10 μL of test compounds for 10 min at RT. 5) Add 30 μL reaction mixture without or with substrate to Btk and compounds. 6) Incubate 50 μL total assay mix for 30 min at 30° C. 7) Transfer 40 μL of assay to 150 μL bead slurry in filter plate to stop reaction. 8) Wash filter plate after 30 min, with following steps • a. 3×250 μL NaCl • b. 3×250 μL NaCl containing 1% phosphoric acid • c.

T1 sequence (Q06187 whole entry): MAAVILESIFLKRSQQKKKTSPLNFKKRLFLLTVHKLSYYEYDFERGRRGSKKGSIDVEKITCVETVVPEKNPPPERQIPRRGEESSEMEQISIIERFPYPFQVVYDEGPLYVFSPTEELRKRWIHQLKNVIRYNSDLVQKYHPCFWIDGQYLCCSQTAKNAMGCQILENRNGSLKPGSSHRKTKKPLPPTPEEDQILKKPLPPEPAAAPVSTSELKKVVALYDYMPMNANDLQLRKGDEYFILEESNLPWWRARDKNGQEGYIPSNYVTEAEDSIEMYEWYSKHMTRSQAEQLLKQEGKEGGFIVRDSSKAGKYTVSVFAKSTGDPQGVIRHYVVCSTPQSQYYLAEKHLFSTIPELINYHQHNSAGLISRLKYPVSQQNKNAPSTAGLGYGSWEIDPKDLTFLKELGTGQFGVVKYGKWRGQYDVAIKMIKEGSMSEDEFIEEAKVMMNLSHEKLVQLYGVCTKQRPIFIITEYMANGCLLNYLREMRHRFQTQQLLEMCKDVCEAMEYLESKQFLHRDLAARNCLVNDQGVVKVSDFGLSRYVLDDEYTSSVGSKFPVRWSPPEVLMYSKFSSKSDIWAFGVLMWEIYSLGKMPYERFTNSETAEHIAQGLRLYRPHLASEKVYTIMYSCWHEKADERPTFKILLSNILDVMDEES

SMILES	IC50 [µM]
CN(C)c1ccc2c(=O)n(-c3cccc(-c4cc(Nc5ccc(C(=O)N6CCOCC6)cn5)c(=O)n(C)c4)c3)ccc2c1 [III-1, 6-Dimethylamino-2-(3-{1-methyl-5-[5-(morpholine-4-carbonyl)-pyridin-2-ylamino]-6-oxo-1,6-dihydro-pyridin-3-yl}-phenyl)-2H-isoquinolin-1-one]	1.08
CN(C)c1ccc2c(c1)CCN(c1cccc(-c3cc(Nc4ccc(C(=O)N5CCOCC5)cn4)c(=O)n(C)c3)c1)C2=O [Example I-1, 6-Dimethylamino-2-(3-{1-methyl-5-[5-(morpholine-4-carbonyl)-pyridin-2-ylamino]-6-oxo-1,6-dihydro-pyridin-3-yl}-phenyl)-3,4-dihydro-2H-isoquinolin-1-one]	0.42
CN(C)c1ccc2c(c1)CCN(c1cccc(-c3cc(Nc4ccc(C(=O)N5CCOCC5)cn4)c(=O)n(C)c3)c1CO)C2=O [Example I-2, 6-Dimethylamino-2-(2-hydroxymethyl-3-{1-methyl-5-[5-(morpholine-4-carbonyl)-pyridin-2-ylamino]-6-oxo-1,6-dihydro-pyridin-3-yl}-phenyl)-3,4-dihydro-2H-isoquinolin-1-one]	0.04
Cc1c(-c2cc(Nc3ccc(C(=O)N4CCOCC4)cn3)c(=O)n(C)c2)cccc1-n1ccc2cc(N(C)C)ccc2c1=O [III-2, 6-Dimethylamino-2-(2-methyl-3-{1-methyl-5-[5-(morpholine-4-carbonyl)-pyridin-2-ylamino]-6-oxo-1,6-dihydro-pyridin-3-yl}-phenyl)-2H-isoquinolin-1-one]	2.76
Cc1c(-c2cc(Nc3ccc(C(=O)N4CCOCC4)cn3)c(=O)n(C)c2)cccc1-c1c[nH]c2cc(N(C)C)ccc2c1=O [II-2, 7-Dimethylamino-3-(2-methyl-3-{1-methyl-5-[5-(morpholine-4-carbonyl)-pyridin-2-ylamino]-6-oxo-1,6-dihydro-pyridin-3-yl}-phenyl)-1H-quinolin-4-one]	0.37
